Data set [1] relates to A-431. The data set can be described thus: Antitumor activity against human A431 cells xenografted in NCR Nu/Nu mouse assessed as tumor growth inhibition at 50 mg/kg, ip administered as bid. Particulars: A-431, ip, read-out: TGI. It is filed as functional.
Data set [2] can be described thus: Antiproliferative activity against EGFR Del 19 mutant expressing human HCC827 cells assessed as cell viability after 72 hrs by CellTiterGlo analysis. Particulars: HCC827, 72 h. It is filed as functional. (In ATP-based viability assays light output follows the ATP content of the culture.)
For data set [3], the system named is A-431. Nature of the data set: Antiproliferative activity against wild type EGFR expressing human A431 cells assessed as cell viability after 72 hrs by CellTiterGlo analysis. It is filed as functional. Conditions: A-431, 72 h.
Data set [4] can be described thus: Antiproliferative activity against EGFR Del ex19/T790M mutant expressing human HCC827EPR cells assessed as cell viability after 72 hrs by CellTiterGlo analysis. The format is functional.
A further data set concerns NCI-H1975. Nature of the data set: Antiproliferative activity against EGFR L858R / T790M double mutant expressing human NCI-H1975 cells assessed as cell viability after 72 hrs by CellTiterGlo analysis. Particulars: NCI-H1975, 72 h. It is filed as functional.
Data set [5] in a line: Oral bioavailability in Nu/Nu mouse at 20 mg/ kg. It is filed as ADME, organism-based. Particulars: in vivo.
Data set [6] is described as follows: Antiproliferative activity against EGFR Del ex19 mutant expressing human PC9 cells assessed as cell viability after 72 hrs by CellTiterGlo analysis. It is filed as functional. Particulars: PC-9, 72 h.
The target in data set [7] is Epidermal growth factor receptor (Homo sapiens, UniProt P00533). The data set can be described thus: Inhibition of wild type EGFR phosphorylation in human LoVo cells preincubated for 2 hrs followed by EGF stimulation measured after 30 mins by ELISA. The format is cell-based. A general note: ELISA stands for enzyme-linked immunosorbent assay.
Data set [8] deals with Epidermal growth factor receptor (Homo sapiens, UniProt P00533, EX19DEL). The data set can be described thus: Inhibition of EGFR Del ex19 mutant phosphorylation in human PC9 cells preincubated for 2 hrs by ELISA. It is filed as cell-based, PC-9.
For data set [9], the target named is Epidermal growth factor receptor (Homo sapiens, UniProt P00533, L858R/T790M). Nature of the data set: Inhibition of EGFR T790M/L858R double mutant phosphorylation in human H1975 cells preincubated for 2 hrs by ELISA. It is filed as cell-based.
Data set [10] in a line: Clearance in patient with EGFR TKI-resistant NSCLC at 20 to 240 mg, po qd. It is filed as ADME, organism-based. Particulars: human, in vivo.
Data set [11] can be described thus: Apparent half life in patient with EGFR TKI-resistant NSCLC at 20 to 240 mg, po qd. The format is ADME, organism-based. Particulars: human, in vivo, read-out: t1/2(app) (converted).
A short description of data set [12]: Half life in mouse at 25 mg/kg, po. The format is ADME, organism-based. Particulars: in vivo.

Each structure is given as a SMILES string.

Chain of Epidermal growth factor receptor (Homo sapiens, UniProt P00533) (P00533 whole entry): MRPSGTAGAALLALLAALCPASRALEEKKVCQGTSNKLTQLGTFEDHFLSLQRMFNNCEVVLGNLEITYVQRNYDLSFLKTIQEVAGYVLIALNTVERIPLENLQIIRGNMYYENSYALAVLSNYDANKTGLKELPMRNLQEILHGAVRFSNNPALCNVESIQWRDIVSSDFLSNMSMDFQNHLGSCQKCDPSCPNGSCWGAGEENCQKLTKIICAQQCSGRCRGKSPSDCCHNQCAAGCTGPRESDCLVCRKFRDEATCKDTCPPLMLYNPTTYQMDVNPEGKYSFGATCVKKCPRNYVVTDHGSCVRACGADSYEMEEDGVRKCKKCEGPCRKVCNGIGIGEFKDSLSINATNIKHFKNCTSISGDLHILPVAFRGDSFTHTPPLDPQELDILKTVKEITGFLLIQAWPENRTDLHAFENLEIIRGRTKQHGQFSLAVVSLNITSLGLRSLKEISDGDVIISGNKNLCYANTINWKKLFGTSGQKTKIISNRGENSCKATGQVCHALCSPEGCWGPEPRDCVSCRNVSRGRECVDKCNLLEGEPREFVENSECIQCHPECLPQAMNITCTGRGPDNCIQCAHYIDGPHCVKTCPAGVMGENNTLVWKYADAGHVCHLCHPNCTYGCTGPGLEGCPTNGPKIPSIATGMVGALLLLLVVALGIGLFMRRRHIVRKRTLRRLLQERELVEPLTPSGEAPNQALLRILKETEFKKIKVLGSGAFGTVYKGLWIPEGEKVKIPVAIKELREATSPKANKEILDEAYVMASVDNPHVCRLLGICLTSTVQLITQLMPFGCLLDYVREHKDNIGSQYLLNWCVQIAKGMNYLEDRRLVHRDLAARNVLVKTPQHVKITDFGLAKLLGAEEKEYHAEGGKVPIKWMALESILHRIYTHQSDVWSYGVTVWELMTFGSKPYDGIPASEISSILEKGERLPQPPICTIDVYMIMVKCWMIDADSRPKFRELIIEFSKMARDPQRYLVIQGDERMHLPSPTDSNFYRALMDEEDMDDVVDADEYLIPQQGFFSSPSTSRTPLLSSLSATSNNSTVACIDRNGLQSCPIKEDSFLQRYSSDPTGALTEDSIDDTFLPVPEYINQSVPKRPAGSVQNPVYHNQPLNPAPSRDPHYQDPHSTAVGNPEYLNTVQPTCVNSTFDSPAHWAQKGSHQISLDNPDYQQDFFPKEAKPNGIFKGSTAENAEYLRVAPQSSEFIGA
Chain of Epidermal growth factor receptor (Homo sapiens, UniProt P00533, EX19DEL) (P00533 whole entry, looked up, stated change not applied): as the sequence (P00533 whole entry) above
Chain of Epidermal growth factor receptor (Homo sapiens, UniProt P00533, L858R/T790M) (P00533 25-1210 T790M/L858R limits assumed): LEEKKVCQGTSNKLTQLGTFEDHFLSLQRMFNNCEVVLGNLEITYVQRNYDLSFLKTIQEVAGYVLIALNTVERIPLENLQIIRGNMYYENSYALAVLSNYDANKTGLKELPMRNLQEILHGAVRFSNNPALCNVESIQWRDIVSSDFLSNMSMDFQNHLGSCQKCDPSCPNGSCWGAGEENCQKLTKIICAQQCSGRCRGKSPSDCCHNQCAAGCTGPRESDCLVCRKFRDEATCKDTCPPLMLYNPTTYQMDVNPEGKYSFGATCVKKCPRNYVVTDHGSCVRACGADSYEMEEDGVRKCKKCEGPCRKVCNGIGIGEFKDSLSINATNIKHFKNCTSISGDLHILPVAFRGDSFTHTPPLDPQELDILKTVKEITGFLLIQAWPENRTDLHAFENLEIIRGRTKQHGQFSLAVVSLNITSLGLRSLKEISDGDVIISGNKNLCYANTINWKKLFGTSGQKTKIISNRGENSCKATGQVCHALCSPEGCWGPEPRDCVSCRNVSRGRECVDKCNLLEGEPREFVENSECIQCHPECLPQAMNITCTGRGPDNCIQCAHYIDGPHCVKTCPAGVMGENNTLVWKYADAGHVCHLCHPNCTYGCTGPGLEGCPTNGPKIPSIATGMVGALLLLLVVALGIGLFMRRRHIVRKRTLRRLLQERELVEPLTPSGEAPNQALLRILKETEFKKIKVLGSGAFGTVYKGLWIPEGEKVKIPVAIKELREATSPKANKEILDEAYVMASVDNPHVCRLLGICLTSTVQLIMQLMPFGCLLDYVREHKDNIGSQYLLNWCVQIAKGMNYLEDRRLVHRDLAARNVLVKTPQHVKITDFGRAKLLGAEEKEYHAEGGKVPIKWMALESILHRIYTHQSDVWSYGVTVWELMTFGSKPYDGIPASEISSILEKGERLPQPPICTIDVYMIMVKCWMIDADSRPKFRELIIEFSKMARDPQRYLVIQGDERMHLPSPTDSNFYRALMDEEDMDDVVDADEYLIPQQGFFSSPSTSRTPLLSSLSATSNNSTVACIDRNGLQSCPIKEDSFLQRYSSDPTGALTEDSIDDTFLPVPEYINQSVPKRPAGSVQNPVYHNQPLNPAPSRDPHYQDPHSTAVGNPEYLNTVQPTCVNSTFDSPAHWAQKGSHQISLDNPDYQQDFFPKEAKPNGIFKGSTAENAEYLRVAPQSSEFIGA

In general, GI50 refers to the concentration at which growth is held to half of that of the control. Usually bioavailability stands for dose-corrected exposure relative to a reference, in per cent. Read a low bioavailability as poor availability. As to `C=CC(=O)Nc1cccc(Nc2nc(Nc3ccc(N4CCN(C(C)=O)CC4)cc3OC)ncc2C(F)(F)F)c1` [ROCILETINIB], in the data set with A-431 [1], the inhibition in vivo at 50 mg/kg stood at 36%. Further, the GI50 in [2] is 7 nM; in the data set with A-431 [3] it was 547 nM; in data set [4], 7 nM; in the data set on NCI-H1975, 7 nM; in [6], 7 nM. Also, the bioavailability in data set [5] amounted to 65%.

Usually IC50 stands for the concentration needed to halve the response being measured. Consider `C=CC(=O)Nc1cc(Nc2nccc(-c3cn(C)c4ccccc34)n2)c(OC)cc1N(C)CCNC`, for which the IC50 in data set [7] was 786 nM; in data set [8], 26 nM; in [9], 45 nM.

For `C=CC(=O)Nc1cc(Nc2nccc(-c3c[nH]c4ccccc34)n2)c(OC)cc1N(C)CCN(C)C`, the IC50 in [7] was found to be 33 nM; in [8], 2 nM; in data set [9], 2 nM.

As usually defined, the CL/F is clearance divided by bioavailability, as obtained after extravascular dosing. `C=CC(=O)Nc1cc(Nc2nccc(-c3cn(C)c4ccccc34)n2)c(OC)cc1N(C)CCN(C)C` [OSIMERTINIB] showed a CL/F in data set [10] of 237 mL/min. The half-life in data set [11] is 55 h; in data set [12], 3 h.

The record behind these values is ChEMBL document CHEMBL3785051, “Recent progress on third generation covalent EGFR inhibitors” (Bioorg Med Chem Lett, 2016).
